Reference: paper PMC11649909 (Nature Communications, 2024)
Residue numbers refer to the chain shown, from its start.

What was measured:
Experiment in all cases: SPR
Assay type in all cases: binding
[1] = target: T1, ADIPOR2 R331A (Homo sapiens, UniProt Q86V24, R331A)
T1 sequence (Q86V24 1-386 R331A): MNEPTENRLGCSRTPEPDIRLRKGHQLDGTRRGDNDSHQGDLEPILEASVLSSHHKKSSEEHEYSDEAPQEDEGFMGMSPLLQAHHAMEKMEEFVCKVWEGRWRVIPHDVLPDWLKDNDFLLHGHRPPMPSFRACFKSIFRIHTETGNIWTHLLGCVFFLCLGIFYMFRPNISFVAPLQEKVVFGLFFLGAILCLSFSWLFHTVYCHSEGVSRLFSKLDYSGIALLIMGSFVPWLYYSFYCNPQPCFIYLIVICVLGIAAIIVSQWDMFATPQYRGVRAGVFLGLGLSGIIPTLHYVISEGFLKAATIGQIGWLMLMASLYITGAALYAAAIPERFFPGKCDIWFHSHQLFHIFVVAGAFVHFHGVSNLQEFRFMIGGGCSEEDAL

[2] = target: T2, ADIPOR2 (adiponectin receptor 2) (Homo sapiens, UniProt Q86V24)
T2 sequence (Q86V24 1-386): T1 sequence (Q86V24 1-386 R331A) with A331R

[3] = target: T3, ADIPOR2 R335A (Homo sapiens, UniProt Q86V24, R335A)
T3 sequence (Q86V24 1-386 R335A): T1 sequence (Q86V24 1-386 R331A) with A331R, R335A

For `COc1cc(C(=O)OCCCCNC(=N)N)cc(OC)c1O` [SCM-198], which Kd [1] is on record?
The Kd was 9.92 µM.

What about the Kd [2] of the same compound?
Its Kd is 1.99 µM.

And the Kd [3]?
The Kd was 50.1 µM.
